Consider seven molecules from patent publication US12410191B2, “Macrolide derivatives, preparation method and application thereof” (ZHEJIANG HISUN PHARMACEUTICAL CO., LTD., priority 2019, dated 2025).

The conditions of series [1]: amide bond, pentafluorophenyl diphenylphosphinate (FDPP), dichloromethane, 25.0 °C.
Series [2] is described as follows: Pharmacokinetic study on ICR mice. In kind it is in vivo. How it is done: ICR mice, male, 29.0 g to 33.8g, purchased from Beijing Charles River Laboratory Animal Technology Co., Ltd.
Intravenous injection group: an appropriate amount of drug was weighed, and added with mixed solvent (DMA: 30% Solutol HS-15: Saline=10:10:80 (v/v/v)) to prepare the drug with a final concentration of 0.2 mg/mL.
Oral gavage administration group: an appropriate amount of drug was weighed, added with an appropriate amount of sodium carboxymethyl cellulose (CMC-Na, containing 0.5% Tween 80), vortex shaked, and ultrasonically prepared into […] suspension.
For ICR mice, each compound to be tested was divided into an intravenous injection group (9 mice in each group) and an intragastric group (9 mice in each group). The ICR mice were fasted overnight and then administered by orbital intravenous injection (administration dose of 1 mg/kg, and administration volume of 5 mL/kg) and administered by intragastric injection (administration dose of 5 mg/kg, and administration volume of 10 mL/kg), and ate 4 hours after administration. 3. Operation
About 0.2 mL of blood was collected via jugular vein before administration and 0.083 hour, 0.25 hour, 0.5 hour, 1 hour, 2 hours, 4 hours, 8 hours, 12 hours and 24 hours after administration, and heparin sodium was used for anticoagulation. The collected blood samples were placed on ice, and plasma was separated by centrifugation (centrifugation condition: 1500 g, 10 minutes). The collected plasma was stored at −40° C. to −20° C. before analysis.
LC-MS/MS was used to determine the contents of different compounds to be tested in mouse plasma after intravenous injection and intragastric administration.

Where two headings read alike, the source gives them in different places.

`C[C@H]1Nc2ccn3ncc(c3n2)C(=O)NC[C@]2(C)Cc3cc(F)cc1c3O2` registered a ring closure, yield of all isomers in series [1] (from C[C@@H](Nc1ccn2ncc(C(=O)O)c2n1)c1cc(F)cc2c1O[C@](C)(CN)C2, N,N-diisopropylethylamine, 231.0 mM) of 17.6%.
Take `C[C@H]1Nc2ccn3ncc(c3n2)C(=O)NCC[C@H]2Cc3cc(F)cc1c3O2`: in series [1] (from C[C@@H](Nc1ccn2ncc(C(=O)O)c2n1)c1cc(F)cc2c1OC(CCN)C2, DIPEA, 33.0 mM, 16.0 h, 2 steps), the ring closure, yield of all isomers was determined as 23.1%.
In series [1] (from C[C@@H](Nc1ccn2ncc(C(=O)O)c2n1)c1cc(F)cc2c1O[C@@](C)(CCN)C2, N,N-diisopropylethylamine, 131.0 mM), `C[C@H]1Nc2ccn3ncc(c3n2)C(=O)NCC[C@@]2(C)Cc3cc(F)cc1c3O2` had a ring closure, yield of all isomers of 18.2%.
Regarding `C[C@H]1Nc2ccn3ncc(c3n2)C(=O)NCC2(C)Cc3cc(F)cc1c3O2` (stereo partly shown), in series [1] (from C[C@@H](Nc1ccn2ncc(C(=O)O)c2n1)c1cc(F)cc2c1OC(C)(CN)C2, DIPEA, 154.8 mM, 16.0 h), the ring closure, yield of all isomers amounted to 5.9%.
`C[C@H]1Nc2ccn3ncc(c3n2)C(=O)NC[C@@]2(C)Cc3cc(F)cc1c3O2` [Example 8, (3R,11R)-6-fluoro-3,11-dimethyl-10-oxa-2,13,17,18,21-pentaazapentacyclo[13.5.2.1^8,11.0^4,9.0^18,22]tricosa-1(21),4,6,8,15(22),16,19-heptaen-14-one] had a ring closure, yield of all isomers in series [1] (from C[C@@H](Nc1ccn2ncc(C(=O)O)c2n1)c1cc(F)cc2c1O[C@@](C)(CN)C2, N,N-diisopropylethylamine, 172.0 mM) of 26.3%. Besides, in series [2], the “bioavailability relative to repotrectinib” value was found to be 4.1 times. Besides, in series [2] (5 mg/kg oral), the “AUC0-∞ relative to repotrectinib” value worked out at 10.6 times and the “Cmax relative to repotrectinib” value is listed as 14.7 times.
`C[C@H]1Nc2ccn3ncc(c3n2)C(=O)NC[C@@H]2COc3cc(F)cc1c3O2` gave a ring closure, yield of all isomers in series [1] (from C[C@@H](Nc1ccn2ncc(C(=O)O)c2n1)c1cc(F)cc2c1O[C@H](CN)CO2, DIPEA, 215.1 mM, 16.0 h) of 42%.
For `C[C@H]1Nc2ccn3ncc(c3n2)C(=O)NCCC2=Cc3cc(F)cc1c3O2`, the ring closure, yield of all isomers in series [1] (from C[C@@H](Nc1ccn2ncc(C(=O)O)c2n1)c1cc(F)cc2cc(CCN)oc12, DIPEA, 172.8 mM, 16.0 h) amounted to 25.4%.
